Values of other authors, collected in patent US20050272712A1, “Compositions and methods for treatment of premenstrual dysphoric disorder” (Wyeth, priority 2004, published 2005).

Conditions: daily dose of either 20 mg or 60 mg; Steiner et al. 1995

Compound: CNCCC(Oc1ccc(C(F)(F)F)cc1)c1ccccc1 (stereo not shown) [fluoxetine]
- reduction of symptoms versus placebo: superior to placebo in reducing symptoms
